Assays:
[1] = test system: cODN; assay: Photocrosslinking test with SPCX, UPLC analysis; format: biochemical
Description: The experiment was carried out as described below using the following ODN (^SPCX) and cODN:
10 μM of ODN (^SPCX) and 10 μM of cODN were dissolved in a 50 mM cacodylic acid buffer (pH 7.4) containing 100 mM of NaCl, and then heated at 90° C. for 1 minute, and then cooled at 4° C. Irradiation with light having 450 nm (LED) was carried out at 4° C. Analysis was then carried out by UPLC. The analysis conditions for UPLC are as follows. The measurement was carried out at a measurement wavelength of 260 nm and at a flow rate of 0.2 mL/min, using a mixed solution of ammonium formate and acetonitrile in which the initial conditions were 99% of ammonium formate and […], and 85% of ammonium formate and 15% of acetonitrile at the end of the analysis (10 minutes).

[2] = test system: nucleic acids; conditions: irradiation with light having 350 nm; cited from earlier work

5'-TGCA^SPCXCCGT-3' [ODN (^SPCX)]
progress of photocrosslinking reaction (UPLC peaks) ([1]; 450 nm (LED), 4° C., 10 μM ODN and 10 μM cODN): progress of the photocrosslinking reaction was confirmed

OC[C@H]1O[C@@H](n2c3ccccc3c3cc4ccc(=S)oc4cc32)CC1O (stereo partly shown) [^SPCX]
photoreactivity compared with pyranocarbazole (PCX) ([1]; irradiation with light having 450 nm): higher photoreactivity
light irradiation time giving photocrosslinking ([1]; irradiation with light having 450 nm, 4° C.): 10 s

O=c1ccc2cc3ccoc3cc2o1 [psoralen]
time required for photoreaction [2]: several hours

From patent publication US11214590B2, “Photoresponsive nucleotide analog capable of photocrosslinking in visible light region” (JAPAN ADVANCED INSTITUTE OF SCIENCE AND TECHNOLOGY, priority 2017, dated 2022)
